For the data set the following is noted: 101.33 kPa, Liquid, Vibrating tube method.

Numbers after ± are expanded uncertainties.

As a reminder, the mass density is mass per unit of volume. Turning to `CC(=O)[O-].CCn1cc[n+](C)c1` [1-ethyl-3-methylimidazolium acetate], the mass density was 1097.83 ± 6.9 kg/m3 (298.15 K); 1094.72 ± 6.9 kg/m3 (303.15 K); 1091.64 ± 6.9 kg/m3 (308.15 K); 1088.57 ± 6.8 kg/m3 (313.15 K); 1085.52 ± 6.8 kg/m3 (318.15 K); 1082.49 ± 6.8 kg/m3 (323.15 K). Besides, the mass density is, setting by setting: (328.15 K) 1079.48 ± 6.8 kg/m3; (333.15 K) 1076.48 ± 6.8 kg/m3; (338.15 K) 1073.49 ± 6.7 kg/m3; (343.15 K) 1070.51 ± 6.7 kg/m3; (348.15 K) 1067.55 ± 6.7 kg/m3; (353.15 K) 1064.6 ± 6.7 kg/m3. Also, the mass density (358.15 K) is reported as 1061.66 ± 6.7 kg/m3 and the mass density (363.15 K) was 1058.74 ± 6.6 kg/m3.

With `CCC[N+]1(C)CCCC1.N#CN=C=[N-]` [1-methyl-1-propylpyrrolidinium dicyanamide], the mass density is on record as 1026.76 ± 6.2 kg/m3 (298.15 K); 1023.9 ± 6.2 kg/m3 (303.15 K); 1021.05 ± 6.2 kg/m3 (308.15 K); 1018.22 ± 6.2 kg/m3 (313.15 K); 1015.41 ± 6.1 kg/m3 (318.15 K); 1012.62 ± 6.1 kg/m3 (323.15 K). For the same molecule, the mass density is, setting by setting: (328.15 K) 1009.85 ± 6.1 kg/m3; (333.15 K) 1007.08 ± 6.1 kg/m3; (338.15 K) 1004.33 ± 6.1 kg/m3; (343.15 K) 1001.6 ± 6.1 kg/m3; (348.15 K) 998.88 ± 6 kg/m3; (353.15 K) 996.18 ± 6 kg/m3. Moreover, the mass density (358.15 K) amounted to 993.49 ± 6 kg/m3 and the mass density (363.15 K) is on record as 990.81 ± 6 kg/m3.

Turning to `CCCC[N+](C)(C)C.O=S(=O)([N-]S(=O)(=O)C(F)(F)F)C(F)(F)F` [butyltrimethylammonium bis(trifluoromethylsulfonyl)imide], the mass density (298.48 K) amounted to 1392.89 ± 8.4 kg/m3.

Turning to `C[S+](C)[O-]` [dimethyl sulfoxide], the mass density was found to be 1100.42 ± 6.6 kg/m3 (293.15 K); 1095.41 ± 6.6 kg/m3 (298.15 K); 1090.38 ± 6.5 kg/m3 (303.15 K); 1085.36 ± 6.5 kg/m3 (308.15 K); 1080.34 ± 6.5 kg/m3 (313.15 K); 1075.32 ± 6.5 kg/m3 (318.15 K). Moreover, the mass density was 1070.31 ± 6.4 kg/m3 (323.15 K); 1065.29 ± 6.4 kg/m3 (328.15 K); 1060.28 ± 6.4 kg/m3 (333.15 K); 1055.26 ± 6.3 kg/m3 (338.15 K); 1050.23 ± 6.3 kg/m3 (343.15 K); 1045.21 ± 6.3 kg/m3 (348.15 K). Moreover, the mass density is listed as 1040.19 ± 6.2 kg/m3 (353.15 K), 1035.15 ± 6.2 kg/m3 (358.15 K) and 1030.12 ± 6.2 kg/m3 (363.15 K).

For the molecule `CCCC[P+](C)(CCCC)CCCC.O=C[O-]` [tributylmethylphosphonium formate], the mass density was found to be 950.7 ± 5.9 kg/m3 (298.15 K); 947.9 ± 5.9 kg/m3 (303.15 K); 945 ± 5.9 kg/m3 (308.15 K); 942.1 ± 5.9 kg/m3 (313.15 K); 939.2 ± 5.8 kg/m3 (318.15 K); 936.3 ± 5.8 kg/m3 (323.15 K). In addition, the mass density (328.15 K) was determined as 933.5 ± 5.8 kg/m3.

The values are drawn from the NIST ThermoML archive (doi:10.1021/acs.jced.6b00833).
